In patent publication US5202350A, “Furanone anti-inflammatory agents” (Bristol-Myers Squibb Co., priority 1991, dated 1993):

Legend:
[1] = target: T1, human platelet phospholipase A2 (Homo sapiens, UniProt P14555); assay: PLA2 Inhibition Assay (14C-oleate labeled E. coli membrane substrate); type: biochemical; settings: human platelet PLA2, pH 7, 37° C., 7 min preincubation, 30 min incubation
T1 construct: The enzyme was isolated from human platelets; from tissue; host or cells: human platelets
T1 sequence (P14555 21-144): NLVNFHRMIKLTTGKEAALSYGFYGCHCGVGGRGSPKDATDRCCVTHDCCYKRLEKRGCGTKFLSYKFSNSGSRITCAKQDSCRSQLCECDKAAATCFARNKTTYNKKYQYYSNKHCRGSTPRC
Experimental: The utility of the compounds of the instant invention is shown by their inhibitory activity toward human platelet phospholipase A2 and their in vivo anti-inflammatory activity. The activity against human platelet phospholipase A2 was determined as described below:
The method used is similar to that reported by Franson, et al. [Jesse R. L. and Franson R. C., Biochim Biophys Acta 575:467-470 (1979), Franson R. C., Patriarca P., and Elsback P., J Lipid Res 15:380-388 (1974)]. The enzyme was isolated from human platelets. The substrate used consisted of ^14 C-oleate labeled Escherichia coli membranes. E. coli cells were grown in the presence of ^14 C-oleic acid and then autoclaved to prepare the membranes.
Various concentrations of test compounds are preincubated with PLA2 (3.6 μg/ml in a buffer consisting of 25 mM HEPES (pH 7), 150 mM NaCl, 5.0 mM CaCl2, and 10% DMSO (v/v, test compound solvent) at 37° C. for 7 minutes. The E. coli membrane substrate is then added (0.1 mM phospholipid, 0.005 μCi ^14 C) and the reaction is then incubated at 37° C. for 30 minutes. The reaction is terminated by the addition of 1.9 ml tetrahydrofuran (THF), and the entire solution is applied to a solid-phase extraction column (aminopropyl resin, Analytichem). The column is rinsed with an additional 1 ml of THF. The free fatty acid product of the reaction is then eluted from the column with 1 ml of 2% acetic acid (v/v) in THF and collected in a scintillation vial. The amount of free fatty acid product is determined by liquid scintillation counting. The amount of inhibition produced by the test compound is calculated by comparing the counts obtained in the presence of the compound to those obtained in its absence (solvent only). Background counts were determined by performing incubations in the absence of enzyme.
Percent inhibition is determined by the equation: [formula]
IC50 values (the concentration of inhibitor required to produce 50% inhibition) were determined by linear regression analysis of a plot of % inhibition versus log test compound concentration.

ears of CD-1 mice = assay: Inhibition of Phorbol-Ester-Induced inflammation (TPA ear edema); type: in vivo; settings: topical, six hours
Text: The method used is similar to that reported by Young, et al. [Young J. M., Wagner B. M., Spires D. A., J Invest Dermatol, 80:48-52(1983); DeYound L. M., Kheifets J. B., Ballaron S. J., Young J. M., Agents Actions 26:335-341 (1989)]. An inflammatory reaction is induced by the topical application of 0.01% (w/v) […] (TPA) to the ears of CD-1 mice. An acute inflammatory reaction is produced, resulting in ear edema. TPA, with and without various concentrations of test compound, was applied to the inner and outer aspects of the ear surface (10 μl/surface). After six hours, the mice were sacrificed and the ears removed. Ear tissue punches (5/16") were taken from each ear and weighed to measure edema.
The anti-inflammatory activity of the test compounds was determined by comparing the edema produced by TPA without test compound to that produced in its presence.
Percent inhibition values were determined by the equation: [formula]

| Structure (SMILES) | IC50 [1] | also measured |
| --- | --- | --- |
| CCCCCCCCCCC1CC(O)OC1=O (centres unmarked) [Example 3, 3-n-Decyl-5-Hydroxy-3,4-Dihydro-Furan-2-One] | 525 µM | – |
| CCCCCCCCCCCC1CC(O)OC1=O (centres unmarked) [Example 5, 3-n-Undecyl-5-Hydroxy-3,4-Dihydro-Furan-2-One] | 17 µM | % Inhibition of Ear Edema (ears of CD-1 mice; dose 2.6% (w/v)): 34.6% |
| CCCCCCCCCCCCC1CC(O)OC1=O (centres unmarked) [Example 7, 3-n-Dodecyl-5-Hydroxy-3,4-Dihydro-Furan-2-One] | 18 µM | – |
| O=C1OC(O)CC1CCCCCCCc1ccccc1 (centres unmarked) [Example 9] | 379 µM | – |
| CCCCCC1CC(O)OC1=O (centres unmarked) [Example 11, 3-n-Amyl-5-Hydroxy-3,4-Dihyro-Furan-2-One] | > 500 µM | – |
| CCCCCCCCCCCCCCCCC1CC(O)OC1=O (centres unmarked) [Example 13, 3-n-Hexadecyl-5-Hydroxy-3,4-Dihydro-Furan-2-One] | 59 µM | % Inhibition of Ear Edema (ears of CD-1 mice; dose 2.5% (w/v)): 6.8%; % Inhibition of Ear Edema (ears of CD-1 mice; dose 5.0% (w/v)): 24.6%; % Inhibition of Ear Edema (ears of CD-1 mice; dose 7.5% (w/v)): 33.5%; % Inhibition of Ear Edema (ears of CD-1 mice; dose 10% (w/v)): 45% |
